Assay [1] has as its target T1, recombinant human LTA4 hydrolase (rhLTA4H) (Homo sapiens, UniProt P09960).
T1 construct: made in house; host or cells: Spodoptera frugiperda (Sf-9) cells, baculovirus (pFastBac1)
T1 sequence (P09960 1-611): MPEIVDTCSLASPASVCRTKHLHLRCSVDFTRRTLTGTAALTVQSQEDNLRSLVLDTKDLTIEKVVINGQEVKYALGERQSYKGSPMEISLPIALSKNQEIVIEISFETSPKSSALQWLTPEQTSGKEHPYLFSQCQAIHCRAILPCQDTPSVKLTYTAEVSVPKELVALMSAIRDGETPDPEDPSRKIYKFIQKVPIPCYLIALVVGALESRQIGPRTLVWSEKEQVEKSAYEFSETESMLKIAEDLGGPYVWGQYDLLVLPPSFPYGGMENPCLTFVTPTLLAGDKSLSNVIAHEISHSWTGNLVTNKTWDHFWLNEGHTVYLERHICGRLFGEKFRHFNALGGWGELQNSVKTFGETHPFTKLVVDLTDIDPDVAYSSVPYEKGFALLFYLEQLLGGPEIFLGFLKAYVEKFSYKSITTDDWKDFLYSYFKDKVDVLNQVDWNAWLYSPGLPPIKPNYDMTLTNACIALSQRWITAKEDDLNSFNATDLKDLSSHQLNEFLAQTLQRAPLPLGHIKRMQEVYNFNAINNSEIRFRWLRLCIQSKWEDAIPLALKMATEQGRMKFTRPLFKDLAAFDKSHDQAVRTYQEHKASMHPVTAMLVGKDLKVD
Put plainly: Recombinant human LTA4 hydrolase assay for LTA4 hydrolase inhibitor activity. It is filed as biochemical. In outline:
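Baculovirus/Sf-9-expressed human LTA4H (10 ng) was preincubated 10 min at rt with compound in assay buffer (10% DMSO in compound dilution), then reacted 30 min at rt with LTA4 free acid made from its methyl ester. LTB4 produced was measured by ELISA after dilution; IC50 from non-linear regression, single or averaged determinations.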

Assay [2] deals with LTB4 production in murine blood (LTA4H). Briefly: LTB4 production by calcium ionophore-stimulated murine blood for LTA4H inhibitor activity. It is filed as cell-based, CD-1 mice. The note with it: Mus musculus; murine blood diluted 1 in 15, A23187 stimulated; single determination or average; mark after value = form tested: ′ free base, ″ hydrochloride, ^ formate; read-out: IC50. The protocol:
Assay 2: LTB4 Production by Calcium Ionophore-Stimulated Murine Blood for LTA4H Inhibitor Activity
CD-1 mice were sacrificed, and blood was collected in heparin-containing syringes by cardiac puncture. […] After the microtiter plate contents were incubated for 15 min at 37° C. in a humidified incubator, calcium ionophore A23187 (Sigma Chemical Co., St. Louis, Mo.) was added to each sample well (final concentration=7 μg/mL). The incubation was continued under the same conditions for an additional 30 min to allow LTB4 formation. The reaction was terminated by centrifugation (833×g, 10 min at 4° C.), and supernatants were analyzed for LTB4 by a commercially available enzyme-linked immunoassay (Cayman Chemical Co.) according to the manufacturer's instructions. Positive controls, under essentially identical conditions but without addition of an inhibitor compound, and negative unstimulated controls, containing all assay components except calcium ionophore, were routinely run in each experiment. […] The values presented here are the result of a single determination or an average of two or more determinations.

Setting [3] is: rhLTA4H, LTB4 by immunoassay, single determination or average of two or more, mark after value = form tested: ′ free base, ″ hydrochloride, ^ formate, read-out: IC50.

Structures are written as SMILES. Structures can show the parent of a compound that is named as a salt. Where two headings read alike, the source gives them in different places.

From patent US8399465B2, “Compounds with two fused bicyclic heteroaryl moieties as modulators of leukotriene A4 hydrolase” (Janssen Pharmaceutica NV, priority 2009, dated 2013) come the findings set out here.

One may read the IC50 as the concentration at which inhibition is half-maximal.

Consider `CC(C)(C)C1CCN(Cc2coc3cc(Oc4nc5ncccc5s4)ccc23)CC1` [Example 302, 2-[3-(4-tert-Butyl-piperidin-1-ylmethyl)-benzofuran-6-yloxy]-thiazolo[4,5-b]pyridine formate], for which the IC50 in assay [1] (setting [3]) came to 20 nM; in assay [2], 78 nM. On to `CC(=O)N1CC2CC(CN(Cc3coc4cc(Oc5nc6ncccc6s5)ccc34)C2)C1` [Example 352, 1-{7-[6-(Thiazolo[4,5-b]pyridin-2-yloxy)-benzofuran-3-ylmethyl]-3,7-diaza-bicyclo[3.3.1]non-3-yl}-ethanone], for which the results for the IC50 in assay [1] (setting [3]) and in assay [2] were 50 nM and 110 nM, respectively. On the same counts, the results for `CCn1c(CN2CCCC2)cc2cc(Oc3nc4ccccc4s3)ccc21` [Example 64, 2-(1-Ethyl-2-pyrrolidin-1-ylmethyl-1H-indol-5-yloxy)-benzothiazole] are 93 nM and 2430 nM. On the same counts, the results for `CC(=O)N[C@H]1C[C@H]2CC[C@@H](C1)N2Cc1cc2ccc(Oc3nc4ncccc4s3)cc2[nH]1` [Example 72, meso-endo-N-{8-[6-(Thiazolo[4,5-b]pyridin-2-yloxy)-1H-indol-2-ylmethyl]-8-aza-bicyclo[3.2.1]oct-3-yl}-acetamide] are 27 nM and 100 nM. In the case of `OC[C@@H]1CCCN1Cc1coc2cc(Oc3nc4ccccc4s3)ccc12` [Example 312, (S)-{1-[6-(Benzothiazol-2-yloxy)-benzofuran-3-ylmethyl]-pyrrolidin-2-yl}-methanol], the IC50 was determined as 22 nM in assay [1] (setting [3]) and 160 nM in assay [2]. For `CS(=O)(=O)N1CCN(Cc2coc3cc(Oc4nc5ncccc5s4)ccc23)CC1` [Example 243, 2-[3-(4-Methanesulfonyl-piperazin-1-ylmethyl)-benzofuran-6-yloxy]-thiazolo[4,5-b]pyridine], in that order: 6 nM and 80 nM.

`NC(=O)C1CCN(Cc2c[nH]c3cc(Oc4nc5ncccc5s4)ccc23)CC1` [Example 17, 1-[6-(Thiazolo[4,5-b]pyridin-2-yloxy)-1H-indol-3-ylmethyl]-piperidine-4-carboxylic acid amide]: the results for the IC50 in assay [1] (setting [3]) and in assay [2] were 2 nM and 118 nM, respectively. Take `NC(=O)N1C[C@H]2C[C@@H]1CN2Cc1cc2ccc(Oc3nc4ncccc4s3)cc2o1` [Example 193, (1R,4R)-5-[6-(Thiazolo[4,5-b]pyridin-2-yloxy)-benzofuran-2-ylmethyl]-2,5-diaza-bicyclo[2.2.1]heptane-2-carboxylic acid amide]: the IC50 in assay [1] (setting [3]) stood at 52 nM; in assay [2], 260 nM. As for `O=C(O)CC1CCN(Cc2cc3ccc(Oc4nc5ccccc5s4)cc3o2)CC1` [Example 78, {1-[6-(Benzothiazol-2-yloxy)-benzofuran-2-ylmethyl]-piperidin-4-yl}-acetic acid formate], the IC50 in assay [1] (setting [3]) was determined as 226 nM. In the case of `c1cnc2nc(Oc3ccc4cc(CN5C[C@@H]6C[C@H]5CO6)oc4c3)sc2c1` [Example 109, (1S,4S)-2-[2-(2-Oxa-5-aza-bicyclo[2.2.1]hept-5-ylmethyl)-benzofuran-6-yloxy]-thiazolo[4,5-b]pyridine formate], the IC50 in assay [1] (setting [3]) worked out at 186 nM. Turning to `CC(=O)NC1CCN(Cc2coc3cc(Oc4nc5ncc(Cl)cc5s4)ccc23)CC1` [Example 254, N-{1-[6-(6-Chloro-thiazolo[4,5-b]pyridin-2-yloxy)-benzofuran-3-ylmethyl]-piperidin-4-yl}-acetamide formate], in assay [1] (setting [3]), the IC50 was 108 nM.

Take `COc1ccc(CNCc2coc3cc(Oc4nc5ncccc5s4)ccc23)cc1` [Example 346, (4-Methoxy-benzyl)-[6-(thiazolo[4,5-b]pyridin-2-yloxy)-benzofuran-3-ylmethyl]-amine]: the IC50 in assay [1] (setting [3]) is 13 nM. Consider `CS(=O)(=O)NC1CCN(Cc2cc3ccc(Oc4nc5ncccc5s4)cc3o2)C1` (centres unmarked) [Example 128, N-(1-{[6-([1,3]thiazolo[4,5-b]pyridin-2-yloxy)-1-benzofuran-2-yl]methyl}pyrrolidin-3-yl)methanesulfonamide formate], for which the IC50 in assay [1] (setting [3]) is 84 nM.

In the case of `c1cnc2nc(Oc3ccc4c(CNCCN5CCCCC5)coc4c3)sc2c1` [Example 305, (2-Piperidin-1-yl-ethyl)-[6-(thiazolo[4,5-b]pyridin-2-yloxy)-benzofuran-3-ylmethyl]-amine], the IC50 in assay [1] (setting [3]) amounted to 31 nM.

For `c1ccc2sc(Oc3ccc4c(CN5CCc6sc7ccccc7c6C5)c[nH]c4c3)nc2c1` [Example 39, 2-[6-(Benzothiazol-2-yloxy)-1H-indol-3-ylmethyl]-1,2,3,4-tetrahydro-benzo[4,5]thieno[3,2-c]pyridine formate], the IC50 in assay [1] (setting [3]) is 275 nM. `CN(Cc1ccccc1)C(=O)c1cc2cc(Oc3nc4ncccc4s3)ccc2o1` [Example 365, 5-(Thiazolo[4,5-b]pyridin-2-yloxy)-benzofuran-2-carboxylic acid benzyl-methyl-amide]: the IC50 in assay [1] (setting [3]) worked out at 110 nM. Turning to `c1ccc2sc(Oc3ccc4oc(CN5CCCCC5)cc4c3)nc2c1` [Example 82, 2-(2-Piperidin-1-ylmethyl-benzofuran-5-yloxy)-benzothiazole formate], the concentration for half-maximal inhibition (IC50) in assay [1] (setting [3]) was 190 nM. In the case of `CC(=O)NC1CCN(Cc2coc3cc(Oc4nc5nc(C)ccc5s4)ccc23)CC1` [Example 250, N-{1-[6-(5-Methyl-thiazolo[4,5-b]pyridin-2-yloxy)-benzofuran-3-ylmethyl]-piperidin-4-yl}-acetamide formate], in assay [1] (setting [3]), the IC50 was 467 nM. For `CC(=O)NC1CCN(Cc2cc3ccc(Oc4nc5ncccc5s4)cc3o2)C1` (centres unmarked) [Example 120, N-(1-{[6-([1,3]thiazolo[4,5-b]pyridin-2-yloxy)-1-benzofuran-2-yl]methyl}pyrrolidin-3-yl)acetamide formate], the IC50 in assay [1] (setting [3]) came out at 145 nM. Consider `CC(=O)N[C@H]1C[C@H]2CC[C@@H](C1)N2Cc1c[nH]c2cc(Oc3nc4c(F)cccc4s3)ccc12` [Example 14, meso-endo-N-{8-[6-(4-Fluoro-benzothiazol-2-yloxy)-1H-indol-3-ylmethyl]-8-aza-bicyclo[3.2.1]oct-3-yl}-acetamide], for which the IC50 in assay [2] amounted to 66 nM. Regarding `CC(=O)N[C@H]1C[C@H]2CC[C@@H](C1)N2Cc1cc2ncc(Oc3nc4ncccc4s3)cc2o1` [Example 296, meso-endo-N-{8-[6-(Thiazolo[4,5-b]pyridin-2-yloxy)-furo[3,2-b]pyridin-2-ylmethyl]-8-aza-bicyclo[3.2.1]oct-3-yl}-acetamide formate], the concentration for half-maximal inhibition (IC50) in assay [1] (setting [3]) was determined as 850 nM.

Consider `c1ccc2sc(Oc3ccc4c(CN5CCCCC5)coc4c3)nc2c1` [Example 405, 2-(3-Piperidin-1-ylmethyl-benzofuran-6-yloxy)-benzothiazole], for which, in assay [1] (setting [3]), the IC50 turned out to be 77 nM. On to `CC(=O)N1C[C@H]2CC[C@@H](C1)N2Cc1cc2cc(Oc3nc4cccnc4s3)ccc2o1` [Example 123, meso-1-{8-[5-(Thiazolo[5,4-b]pyridin-2-yloxy)-benzofuran-2-ylmethyl]-3,8-diaza-bicyclo[3.2.1]oct-3-yl}-ethanone], for which the IC50 in assay [1] (setting [3]) worked out at 89 nM. As for `CC(=O)N1C[C@@H]2C[C@H]1CN2Cc1cc2cc(Oc3nc4cnccc4s3)ccc2o1` [Example 199, (1S,4S)-1-{5-[5-(Thiazolo[4,5-c]pyridin-2-yloxy)-benzofuran-2-ylmethyl]-2,5-diaza-bicyclo[2.2.1]hept-2-yl}-ethanone formate], in assay [1], the IC50 was 338 nM. As for `O=C1Cc2ccc(C(F)(F)F)cc2N1Cc1coc2cc(Oc3nc4ncccc4s3)ccc12` [Example 398, 1-[6-(Thiazolo[4,5-b]pyridin-2-yloxy)-benzofuran-3-ylmethyl]-6-trifluoromethyl-1,3-dihydro-indol-2-one], the IC50 in assay [1] (setting [3]) was 470 nM.

Consider `CC(=O)N(Cc1coc2cc(Oc3nc4ncccc4s3)ccc12)[C@H]1CN2CCC1CC2` [Example 404, (R)—N-(1-Aza-bicyclo[2.2.2]oct-3-yl)-N-[6-(thiazolo[4,5-b]pyridin-2-yloxy)-benzofuran-3-ylmethyl]-acetamide formate], for which the IC50 in assay [1] (setting [3]) was 2 nM. Consider `O=C(c1coc2cc(Oc3nc4ncccc4s3)ccc12)N1CCC2CCCCC2C1` (centres unmarked) [Example 385, (Octahydro-isoquinolin-2-yl)-[6-(thiazolo[4,5-b]pyridin-2-yloxy)-benzofuran-3-yl]-methanone], for which, in assay [1] (setting [3]), the IC50 came out at 1530 nM.
